# Reference: patent US20170049793A1, “MOLECULAR ACTIVATORS OF THE WNT/BETA-CATENIN PATHWAY” (THE GENERAL HOSPITAL CORPORATION, priority 2009, published 2017)
# What was measured:
# [1] = system: Axin2 expression (Wnt/β-catenin pathway) in B16 cells; test: Quantitative PCR of the Wnt/β-catenin target gene Axin2 in B16 cells; assay type: cell-based, murine; settings: 1 μM BIO vs control cells
# Protocol: Cells were cultured for approximately 72 hours until they reached 80-90% confluency. RNA was purified using the RNeasy kit using the manufacturer's protocol (Qiagen; Maryland, Md.). cDNA was synthesized using Superscript Reverse Transcriptase (Invitrogen; Grand Island, N.Y.). Light Cycler FastStart DNA Master SYBR Green1 (Roche; Mannheim, Germany) was used for real-time PCR as previously described (Major et al., Science 316:1043 (2007), which is hereby incorporated by reference in its entirety). Quantitative PCR results presented in the manuscript are representative of experiments performed on a minimum of three biologic replicates.
# B16 melanoma cells = test: MTT proliferation assay in B16 melanoma cells; assay type: cell-based, murine; settings: 1 μM BIO vs control cells
# [2] = Suitability for murine therapeutic trials (toxicity, serum levels); assay type: in vivo, mice; settings: precluding murine therapeutic trials
# [3] = system: nuclear β-catenin (Wnt/β-catenin pathway) in B16 cells; test: Immunofluorescent staining of β-catenin in B16 cells; assay type: cell-based, murine; settings: 1 μM BIO vs DMSO control
# Protocol: A polyclonal rabbit anti-β-catenin antibody was used for detection of 1β-catenin (1:1000 dilution for immunoblot, 1:200 dilution for immunohistochemistry). Cells were grown on 18 mm glass coverslips, for 48-72 hours, fixed using 4% paraformaldehyde, permeabilized using 0.25% Triton X-100, and then blocked with 10% goat serum. Goat anti-rabbit Alexa Fluor-568 antibody (Molecular Probes; Eugene, Oreg.) was diluted 1:1000. Cells were counterstained for nucleic acid with DAPI (Molecular Probes; Eugene, Oreg.). Paraffin-embedded nevus sections were stained using an antibody dilution of 1:200. Cellular lysates were obtained by lysing cells on plate with a 0.1% NP-40 based buffer and analyzed by NuPage 4-12% gradient gels (Invitrogen; Grand Island, N.Y.). The WNTSA antibody was obtained from Cell Signaling Technologies (Danvers, Mass.).
compound,measurement,setting,value
"O=C1Nc2cc(Br)ccc2/C1=C1/Nc2ccccc2/C1=N\O [BIO, 6-bromoindirubin-3′-oxime]",Axin2 levels (quantitative PCR),[1],increased Axing levels
same,proliferation (MTT assay),B16 melanoma cells,decreased proliferation
same,toxicity,[2],obstacles relating to both toxicity
same,nuclear β-catenin (immunofluorescent staining),[3],increased nuclear β-catenin
